Source: US20250250299A1, “MACROCYCLIC IMMUNOMODULATORS” (Bristol-Myers Squibb Company, priority 2022, published 2025)
Where a SMILES comes first, the peptide text is derived from it. Bridges are numbered along the chain shown (N, C = ends). [ ]: non-standard residue; d: D form. The star is where a group is joined. X1 = O=C(O)CCCCCCCCCCCCCCCCC(=O)N[C@@H](CCC(=O)NCCOCCOCCOCCOCCOCCOCCOCCOCCOCCOCCOCCn1cc(C*)nn1)C(=O)O; Phe(4-COOH) = N[C@@H](Cc1ccc(C(=O)O)cc1)C(=O)O; Phe(4-CH2NH2) = NCc1ccc(C[C@H](N)C(=O)O)cc1; Bip = N[C@@H](Cc1ccc(-c2ccccc2)cc1)C(=O)O; Phe(3-Me) = Cc1cccc(C[C@H](N)C(=O)O)c1; C12 diacid = O=C(O)CCCCCCCCCCC(=O)*; Cha = N[C@@H](CC1CCCCC1)C(=O)O; Carboxymethyl = O=C(O)C*; NMeA = CN[C@@H](C)C(=O)O; Nle = CCCC[C@H](N)C(=O)O; Orn = NCCC[C@H](N)C(=O)O; Dab = NCC[C@H](N)C(=O)O; Dap = NC[C@H](N)C(=O)O; AEEA = NCCOCCOCC(=O)O

Biological target: T1, human PD-1 (Jurkat-PD-1 cells; binding of PE-labeled human PD-L1-Ig) (Homo sapiens, UniProt Q15116)
T1 construct: expressed in transfected cells; host or cells: Jurkat (Jurkat-PD-1 / Jurkat-hPD-1)
T1 sequence (Q15116 25-288): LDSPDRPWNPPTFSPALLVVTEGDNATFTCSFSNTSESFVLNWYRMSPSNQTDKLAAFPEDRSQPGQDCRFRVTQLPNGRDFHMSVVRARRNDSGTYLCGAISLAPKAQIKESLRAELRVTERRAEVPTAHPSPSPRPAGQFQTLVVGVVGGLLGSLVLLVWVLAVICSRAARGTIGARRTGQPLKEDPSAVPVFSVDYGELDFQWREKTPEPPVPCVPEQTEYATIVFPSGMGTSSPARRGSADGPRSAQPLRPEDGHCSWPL
Assay: Jurkat-PD-1 Cell Binding High-Content Screening Assay
Conditions: Jurkat cell line over-expressing human PD-1; compound 2 h at 37° C., then PE-labeled PD-L1-Ig 20 nM final, 1 hour; read-out: Jurkat hPD1 PDL1 IC50
Description: The ability of the compounds of formula (I) to bind to PD-1 was investigated using a Jurkat-PD-1 Cell Binding High-Content Screening Assay.
Phycoerythrin (PE) was covalently linked to the Ig epitope tag of human PD-L1-Ig and fluorescently-labeled PD-L1-Ig was used for binding studies with a Jurkat cell line over-expressing human PD-1 (Jurkat-PD-1). Briefly, 8×10^3 Jurkat-hPD-1 cells were seeded into 384 well plates in 20 μl of DIVEM supplemented with 10% fetal calf serum. 100 nl of compound was added to cells followed by incubation at 37° C. for 2 h. Then, 5 μl of PE-labeled PD-L1-Ig (20 nM final), diluted in DiVEM supplemented with 10 fetal calf serum. After 1 hour incubation, cells were fixed with […] in dPBS containing 10 µg/mL Hoechst 33342 and then washed 3× in 100 μl dPB S. Data was collected and processed using a Cell Insight NXT High Content Imager and associated software.

Row | SMILES | IC50 [nM]
1 | CC(C)C[C@H]1NC(=O)[C@H](C)N(C)C(=O)[C@H](C(C)C)NC(=O)[C@H](Cc2ccc(-c3ccccc3)cc2)NC(=O)[C@H](C(C)C)NC(=O)[C@H](Cc2c[nH]c3ccccc23)NC(=O)[C@H](CC(=O)O)NC(=O)[C@H](Cc2ccc(CNC(=O)CCCCCCCCCCC(=O)O)cc2)NC(=O)[C@H](Cc2ccc(OCC(=O)O)cc2)NC(=O)CSC[C@@H](C(N)=O)NC(=O)[C@H](CO)NC(=O)[C@H](C(C)C)NC(=O)[C@H](CC2CCCCC2)NC(=O)[C@H](CC(N)=O)NC1=O [Compound 1038] ({CH2CO}-Y(Carboxymethyl)[Phe(4-CH2NH2)](C12 diacid)DWV[Bip]V[NMeA][dL]N[Cha]VSC-NH2; thioether N-14) | 180
2 | CCCC[C@@H]1NC(=O)CSC[C@@H](C(=O)N[C@@H](CCN)C(N)=O)NC(=O)[C@H](CCC(=O)O)NC(=O)[C@H](C(C)C)NC(=O)[C@H](CC2CCCCC2)NC(=O)[C@H](CCN)NC(=O)[C@@H](CC(C)C)NC(=O)[C@H](CCCN)NC(=O)[C@H](Cc2ccc(C(=O)O)cc2)NC(=O)[C@H](Cc2ccc(-c3ccccc3)cc2)NC(=O)[C@H](Cc2ccc(OCc3cn(CCOCCOCCOCCOCCOCCOCCOCCOCCOCCOCCOCCNC(=O)CC[C@H](NC(=O)CCCCCCCCCCCCCCCCC(=O)O)C(=O)O)nn3)cc2)NC(=O)[C@H](Cc2cccc(C)c2)NC(=O)[C@H](CC(=O)O)NC(=O)[C@H](Cc2ccc(C(=O)O)cc2)NC1=O [Compound 1020] ({CH2CO}-[Nle][Phe(4-COOH)]D[Phe(3-Me)]Y(X1)[Bip][Phe(4-COOH)][Orn][dL][Dab][Cha]VEC[Dab]-NH2; thioether N-14) | 96
3 | Cc1cccc(C[C@@H]2NC(=O)[C@H](CC(=O)O)NC(=O)[C@H](Cc3ccc(C(=O)O)cc3)NC(=O)[C@H]([C@@H](C)O)NC(=O)CSC[C@@H](C(=O)N[C@@H](CCN)C(N)=O)NC(=O)[C@H](CCC(=O)O)NC(=O)[C@H](C(C)C)NC(=O)[C@H](CC3CCCCC3)NC(=O)[C@H](CCN)NC(=O)[C@@H](CC(C)C)NC(=O)[C@H](CCCN)NC(=O)[C@H](Cc3ccc(C(=O)O)cc3)NC(=O)[C@H](Cc3ccc(-c4ccccc4)cc3)NC(=O)[C@H](Cc3ccc(OCc4cn(CCOCCOCCOCCOCCOCCOCCOCCOCCOCCOCCOCCNC(=O)CC[C@H](NC(=O)CCCCCCCCCCCCCCCCC(=O)O)C(=O)O)nn4)cc3)NC2=O)c1 [Compound 1023] ({CH2CO}-T[Phe(4-COOH)]D[Phe(3-Me)]Y(X1)[Bip][Phe(4-COOH)][Orn][dL][Dab][Cha]VEC[Dab]-NH2; thioether N-14) | 99
4 | Cc1cccc(C[C@@H]2NC(=O)[C@H](CC(=O)O)NC(=O)[C@H](Cc3ccc(OCC(=O)O)cc3)NC(=O)[C@H](CN)NC(=O)CSC[C@@H](C(=O)N[C@@H](CCN)C(=O)NCCOCCOCC(N)=O)NC(=O)[C@H]([C@@H](C)O)NC(=O)[C@H](C(C)C)NC(=O)[C@H](CC3CCCCC3)NC(=O)[C@H](CCN)NC(=O)[C@@H](CC(C)C)NC(=O)[C@H](COCc3cn(CCOCCOCCOCCOCCOCCOCCOCCOCCOCCOCCOCCNC(=O)CC[C@H](NC(=O)CCCCCCCCCCCCCCCCC(=O)O)C(=O)O)nn3)NC(=O)[C@H](Cc3ccc(OCC(=O)O)cc3)NC(=O)[C@H](Cc3ccc(-c4ccccc4)cc3)NC(=O)[C@H](Cc3ccc(OCC(=O)O)cc3)NC2=O)c1 [Compound 1043] ({CH2CO}-[Dap]Y(Carboxymethyl)D[Phe(3-Me)]Y(Carboxymethyl)[Bip]Y(Carboxymethyl)S(X1)[dL][Dab][Cha]VTC[Dab][AEEA]-NH2; thioether N-14) | 610
5 | CCCC[C@@H]1NC(=O)CSC[C@@H](C(=O)N[C@@H](CCN)C(N)=O)NC(=O)[C@H](CCC(=O)O)NC(=O)[C@H](C(C)C)NC(=O)[C@H](CC2CCCCC2)NC(=O)[C@H](CCN)NC(=O)[C@@H](CC(C)C)NC(=O)[C@H](CCCN)NC(=O)[C@H](Cc2ccc(OCC(=O)O)cc2)NC(=O)[C@H](Cc2ccc(-c3ccccc3)cc2)NC(=O)[C@H](Cc2ccc(OCc3cn(CCOCCOCCOCCOCCOCCOCCOCCOCCOCCOCCOCCNC(=O)CC[C@H](NC(=O)CCCCCCCCCCCCCCCCC(=O)O)C(=O)O)nn3)cc2)NC(=O)[C@H](Cc2cccc(C)c2)NC(=O)[C@H](CC(=O)O)NC(=O)[C@H](Cc2ccc(OCC(=O)O)cc2)NC1=O [Compound 1016] ({CH2CO}-[Nle]Y(Carboxymethyl)D[Phe(3-Me)]Y(X1)[Bip]Y(Carboxymethyl)[Orn][dL][Dab][Cha]VEC[Dab]-NH2; thioether N-14) | 100
6 | CCCC[C@@H]1NC(=O)CSC[C@@H](C(=O)N[C@@H](CCN)C(N)=O)NC(=O)[C@H](CCC(=O)O)NC(=O)[C@H](C(C)C)NC(=O)[C@H](CC2CCCCC2)NC(=O)[C@H](CCN)NC(=O)[C@@H](CC(C)C)NC(=O)[C@H](CCCN)NC(=O)[C@H](Cc2ccc(OCc3cn(CCOCCOCCOCCOCCOCCOCCOCCOCCOCCOCCOCCNC(=O)CC[C@H](NC(=O)CCCCCCCCCCCCCCCCC(=O)O)C(=O)O)nn3)cc2)NC(=O)[C@H](Cc2ccc(-c3ccccc3)cc2)NC(=O)[C@H](Cc2ccc(OCC(=O)O)cc2)NC(=O)[C@H](Cc2cccc(C)c2)NC(=O)[C@H](CC(=O)O)NC(=O)[C@H](Cc2ccc(OCC(=O)O)cc2)NC1=O [Compound 1024] ({CH2CO}-[Nle]Y(Carboxymethyl)D[Phe(3-Me)]Y(Carboxymethyl)[Bip]Y(X1)[Orn][dL][Dab][Cha]VEC[Dab]-NH2; thioether N-14) | 400
7 | Cc1cccc(C[C@@H]2NC(=O)[C@H](CC(=O)O)NC(=O)[C@H](Cc3ccc(OCc4cn(CCOCCOCCOCCOCCOCCOCCOCCOCCOCCOCCOCCNC(=O)CC[C@H](NC(=O)CCCCCCCCCCCCCCCCC(=O)O)C(=O)O)nn4)cc3)NC(=O)[C@H](CCCNC(=N)N)NC(=O)CSC[C@@H](C(=O)N[C@@H](CCN)C(N)=O)NC(=O)[C@H](CCC(=O)O)NC(=O)[C@H](C(C)C)NC(=O)[C@H](CC3CCCCC3)NC(=O)[C@H](CCN)NC(=O)[C@@H](CC(C)C)NC(=O)[C@H](CCCN)NC(=O)[C@H](Cc3ccc(OCC(=O)O)cc3)NC(=O)[C@H](Cc3ccc(-c4ccccc4)cc3)NC(=O)[C@H](Cc3ccc(OCC(=O)O)cc3)NC2=O)c1 [Compound 1009] ({CH2CO}-RY(X1)D[Phe(3-Me)]Y(Carboxymethyl)[Bip]Y(Carboxymethyl)[Orn][dL][Dab][Cha]VEC[Dab]-NH2; thioether N-14) | 720
8 | Cc1cccc(C[C@@H]2NC(=O)[C@H](CC(=O)O)NC(=O)[C@H](Cc3ccc(OCc4cn(CCOCCOCCOCCOCCOCCOCCOCCOCCOCCOCCOCCNC(=O)CC[C@H](NC(=O)CCCCCCCCCCCCCCCCC(=O)O)C(=O)O)nn4)cc3)NC(=O)[C@H](CN)NC(=O)CSC[C@@H](C(=O)N[C@@H](CCN)C(N)=O)NC(=O)[C@H](CCC(=O)O)NC(=O)[C@H](C(C)C)NC(=O)[C@H](CC3CCCCC3)NC(=O)[C@H](CCN)NC(=O)[C@@H](CC(C)C)NC(=O)[C@H](CCCN)NC(=O)[C@H](Cc3ccc(OCC(=O)O)cc3)NC(=O)[C@H](Cc3ccc(-c4ccccc4)cc3)NC(=O)[C@H](Cc3ccc(OCC(=O)O)cc3)NC2=O)c1 [Compound 1008] ({CH2CO}-[Dap]Y(X1)D[Phe(3-Me)]Y(Carboxymethyl)[Bip]Y(Carboxymethyl)[Orn][dL][Dab][Cha]VEC[Dab]-NH2; thioether N-14) | 710
9 | Cc1cccc(C[C@@H]2NC(=O)[C@H](CC(=O)O)NC(=O)[C@H](Cc3ccc(OCC(=O)O)cc3)NC(=O)[C@H](CN)NC(=O)CSC[C@@H](C(=O)N[C@@H](CCN)C(=O)NCCOCCOCC(N)=O)NC(=O)[C@H]([C@@H](C)O)NC(=O)[C@H](C(C)C)NC(=O)[C@H](CC3CCCCC3)NC(=O)[C@H](CCN)NC(=O)[C@@H](CC(C)C)NC(=O)[C@H](CCCN)NC(=O)[C@H](Cc3ccc(OCC(=O)O)cc3)NC(=O)[C@H](Cc3ccc(-c4ccccc4)cc3)NC(=O)[C@H](COCc3cn(CCOCCOCCOCCOCCOCCOCCOCCOCCOCCOCCOCCNC(=O)CC[C@H](NC(=O)CCCCCCCCCCCCCCCCC(=O)O)C(=O)O)nn3)NC2=O)c1 [Compound 1040] ({CH2CO}-[Dap]Y(Carboxymethyl)D[Phe(3-Me)]S(X1)[Bip]Y(Carboxymethyl)[Orn][dL][Dab][Cha]VTC[Dab][AEEA]-NH2; thioether N-14) | 250
10 | Cc1cccc(C[C@@H]2NC(=O)[C@H](CC(=O)O)NC(=O)[C@H](Cc3ccc(OCC(=O)O)cc3)NC(=O)[C@H](CN)NC(=O)CSC[C@@H](C(=O)N[C@@H](CCN)C(N)=O)NC(=O)[C@H](CCC(=O)O)NC(=O)[C@H](C(C)C)NC(=O)[C@H](CC3CCCCC3)NC(=O)[C@H](CCN)NC(=O)[C@@H](CC(C)C)NC(=O)[C@H](CCCN)NC(=O)[C@H](Cc3ccc(OCC(=O)O)cc3)NC(=O)[C@H](Cc3ccc(-c4ccccc4)cc3)NC(=O)[C@H](Cc3ccc(OCc4cn(CCOCCOCCOCCOCCOCCOCCOCCOCCOCCOCCOCCNC(=O)CC[C@H](NC(=O)CCCCCCCCCCCCCCCCC(=O)O)C(=O)O)nn4)cc3)NC2=O)c1 [Compound 1004] ({CH2CO}-[Dap]Y(Carboxymethyl)D[Phe(3-Me)]Y(X1)[Bip]Y(Carboxymethyl)[Orn][dL][Dab][Cha]VEC[Dab]-NH2; thioether N-14) | 110
